The text below walks through data of US12492215B2, “Pyrrolotriazine compounds acting as MNK inhibitor” (JUMBO DRUG BANK CO., LTD., priority 2019, dated 2025).

Where a name gives a salt, the structure may show the parent alone.

For data set [1], the target named is MNK2 (h) protein kinase (Homo sapiens (Human), UniProt Q9HBH9). In words: Inhibitory activity against MNK2 protein kinase (KinaseProfiler, 33P-ATP filter-binding). The data set is classed as biochemical. Conditions: myelin basic protein substrate, 40 min room temperature. The method, then:
1. In Vitro Evaluation of Inhibitory Activity of Compounds Disclosed Herein Against MNK2 Protein Kinase
Purpose of experiment: to test the inhibitory activity of the compounds against MNK2 protein kinase
Experimental materials: assay buffer: 8 mM 3-(N-morpholino)propanesulfonic acid, 0.2 mM disodium ethylenediaminetetraacetate, 0.01% polyoxyethylene lauryl ether, 5% glycerol, 0.1% β-mercaptoethanol and 1 mg of bovine serum albumin
Experimental operation: Mnk2 protein kinase inhibitory activity assays were performed using the KinaseProfiler™ service from Eurofins Pharma Discovery Services UK Limited. Serially diluted DMSO solutions containing the compounds to be tested (3-fold serial dilution, starting from 10 μM), MNK2 (h) protein kinase and 0.33 mg/mL myelin basic protein were added to a freshly prepared buffer (pH 7.0), and then stirred homogeneously. The reaction was initiated by adding a mixture of ^33P-ATP (intensity of radioactivity: 10 μCi/μL) and 10 mM magnesium acetate. After the resulting mixture was reacted at room temperature for 40 min, the reaction was terminated by adding phosphoric acid to dilute to a concentration of 0.5%. 10 μL of the reaction solution was filtered using a P30 filtermat, and then the filtermat was washed four times with 0.425% phosphoric acid for 4 min each, followed by washing once with methanol. After drying, the intensity of radioactivity was determined using the Filter-Binding method.
The protein kinase inhibitory activity of the compounds was expressed as a percentage of the residual protein kinase activity relative to the blank substrate (DMSO alone). The Prism4 software package (GraphPad) was used to calculate IC50 values and fit curves.

Data set [2] relates to eIF4E phosphorylation of HCT116 cell strain. The experiment in a line: Inhibition of eIF4E phosphorylation in HCT116 cell strain (AlphaLISA p-eIF4E Ser209). Type of data set: cell-based. The settings on record: Homo sapiens, HCT-116; HCT116 cells, 3 h incubation. An excerpt:
3. In Vitro Evaluation of Inhibitory Activity of Compounds Disclosed Herein Against eIF4E Phosphorylation Purpose of experiment: to test the inhibition (IC50) of the compounds against eIF4E phosphorylation of HCT116 cell strain. Experimental materials: HCT116 cells (ATCC), RPM11640 medium (Life technology), fetal bovine serum (Hyclone), double antibodies (penicillin, streptomycin) (Millipore), phosphate buffer (Corning), 384-well cell plate (PerkinElmer), and AlphaLISA® SureFire® Ultra™ p-eIF4E (Ser209) Assay Kit (PerkinElmer). Experimental operation: HCT116 cells were digested to make a cell suspension, which was then plated in a 96-well plate. The cell plate was then placed in an incubator for overnight incubation. Compounds were diluted to corresponding concentrations and added to the cell plate, and the resulting mixture was incubated for 3 h. The cells were subsequently lysed with a lysis buffer, and the lysate was transferred to a 384-well plate. A mixed receptor was freshly prepared according to the kit instructions and added to the 384-well plate, and the mixture was incubated at room temperature for 1 h. Then a mixed donor was freshly prepared according to the kit instructions and added to the 384-well plate, and the resulting mixture was incubated at room temperature for 1 h. The signals were read on EnVision using the standard AlphaLISA program, curves were fitted using Graphpad prism, and the IC50 values were calculated.
For orientation: Bead proximity is the source of the signal in Alpha formats.

A short description of data set [3]: Pharmacokinetic evaluation in mice. Type of data set: in vivo, CD-1 mice. Conditions: male, CD-1, mouse, plasma; for AUC(0-t) / half-life: PO 2 mg/kg; for AUC(0-t): read-out: Area under the plasma drug concentration-time curve AUC0-last PO; for half-life: read-out: Half-life T1/2 (PO) (converted); for Cmax: intragastric 2 mg/kg, intravenous 0.5 mg/kg (route of Cmax not given), read-out: Peak concentration Cmax. As to the method: 4. Pharmacokinetic Evaluation of Compounds Disclosed Herein
Purpose of experiment: to test pharmacokinetic parameters of the compounds in CD-1 mice
Experimental materials: CD-1 mice (Male, 7-9 weeks age, Shanghai Sippe-Bk Lab Animal Co., Ltd.)
Experimental operation: pharmacokinetic characteristics of the compounds after intravenous injection and oral administration for the rodent were tested by a standard scheme, and the candidate compounds were each formulated into a clear solution or a uniform suspension in the experiments and intravenously administered and intragastrically administered once to a mouse. The vehicle for the intravenous injection and oral administration was […] hydroxypropyl-β-cyclodextrin aqueous solution or normal saline solution. […] Two mice were subjected to intravenous injection at a dose of 0.5 mg/kg, and plasma samples were collected at 0 h (before administration) and 0.083, 0.25, 0.5, 1, 2, 4, 8, 12 and 24 h (after administration); the other two mice were subjected to intragastric administration at a dose of 2 mg/kg, and plasma samples were collected at 0 h (before administration) and 0.25, 0.5, 1, 2, 4, 8, 12 and 24 h (after administration). Whole blood samples within 24 h were collected and each centrifuged at 3000 g for 10 min. The supernatant was separated to obtain plasma sample, and acetonitrile solution containing internal standard whose volume is […] that of the plasma sample was added to precipitate the protein. The mixture was vortexed at 800 rpm for 10 min, and then 1 μL of supernatant was taken for injection. Plasma concentrations were quantitatively analyzed by LC-MS/MS method, and pharmacokinetic parameters, such as peak concentration (Cmax), clearance (CL), half-life (T1/2), tissue distribution (Vdss), area under the plasma drug concentration-time curve (AUC0-last) and bioavailability (F), were calculated.

In data set [4] the test system is CT-26 mouse colon cancer graft tumor. The experiment in a line: In vivo efficacy in CT-26 mouse graft tumor. Further details: species or system mice. Conditions: QD, 21-day treatment, CT-26 graft tumor. The method, then:
5. In Vivo Efficacy Experiment of Compound Disclosed Herein for CT-26 Mouse Graft Tumor
Purpose of experiment: to determine in vivo efficacy of compound for CT-26 mouse graft tumor
Experimental materials: CT-26 cells, RMPI-1640 medium containing 10% fetal bovine serum, and mice (female, Shanghai Sippe-Bk Lab Animal Co., Ltd.)
Experimental operation: CT-26 cells were cultured in RMPI-1640 medium containing 10% fetal bovine serum in an incubator at 37° C./5% CO2. Tumor cells were subcultured, and after an appropriate concentration was reached and the tumor cells were in the logarithmic growth phase, the tumor cells were collected, counted and then resuspended in DPBS (phosphate buffered solution), and the concentration of the cell suspension was adjusted to 3×10^6/mL for inoculation.
Establishment of mouse colon cancer graft tumor: cells were collected and adjusted to a concentration of 3×10^6 cells/mL (resuspended in DPBS to obtain cell suspension), and 0.1 mL of tumor cells was injected subcutaneously at the right dorsal side of the mice under sterile conditions, and 3×10^5 cells were inoculated for each mouse. After the tumor grew to a certain size, the length (a) and the width (b) of the tumor was measured by using a digital vernier caliper, and the tumor volume (TV) was calculated, wherein the calculation formula is as follows: TV=a×b^2/2.
CT-26 tumor cell inoculation: on the day of inoculation, animals were grouped (8 animals for each) according to the body weight and subjected to drug administration separately, and the day of inoculation was considered as D0. When the tumor size reached about 60 mm^3, the animals in the antibody groups were grouped according to the tumor size and the body weight. The body weight and tumor size of the animals were measured three times a week during the experiment, while clinical symptoms of the animals were observed and recorded daily, and for each administration, reference was made to the animal body weight measured most recently. The inhibitory effect of the compound on colon cancer graft tumor in mice was determined after 21-day treatment at a dose of 30 mg/Kg QD (once daily), 90 mg/Kg QD (once daily) and 200 mg/Kg QD (once daily), and the specific information is shown in Table 5 below.
The calculation formula of T/C (%) is as follows: T/C (%)=(TRTV/CRTV)×100%. TRTV is the relative tumor volume of the treatment group, and CRTV is the relative tumor volume of the negative control group; TGI (%)^a=(1−average tumor volume at the end of administration of a treatment group/average tumor volume at the end of treatment of the vehicle control group)×100%.

For data set [5] the following is noted: background statement; cited from earlier work.
Data set [6] relates to expression of PD-1, LAG3 and IL-10. The settings on record: background statement; cited from earlier work.

Chain of MNK2 (h) protein kinase (Q9HBH9 whole entry): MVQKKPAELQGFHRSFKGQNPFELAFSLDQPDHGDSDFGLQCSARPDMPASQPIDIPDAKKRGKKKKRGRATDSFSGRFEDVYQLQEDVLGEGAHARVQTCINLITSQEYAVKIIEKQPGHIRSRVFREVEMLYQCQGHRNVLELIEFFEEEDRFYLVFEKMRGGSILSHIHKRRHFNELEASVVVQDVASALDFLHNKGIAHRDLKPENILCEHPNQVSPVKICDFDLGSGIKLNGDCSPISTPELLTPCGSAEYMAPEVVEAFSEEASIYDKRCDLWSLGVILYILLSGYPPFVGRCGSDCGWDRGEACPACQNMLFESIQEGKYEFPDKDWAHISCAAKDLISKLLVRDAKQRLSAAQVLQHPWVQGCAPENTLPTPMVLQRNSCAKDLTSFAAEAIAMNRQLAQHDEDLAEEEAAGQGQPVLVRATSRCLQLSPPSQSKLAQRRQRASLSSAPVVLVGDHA

Regarding `Cc1cc(Nc2ncnn3cc(OCCN4CCCC4)c(C)c23)c(=O)n2c1C(=O)NC21CCNCC1` [Compound 2 (hydrochloride)], the IC50 in data set [1] was 63 nM.

Compound `Cc1cc(Nc2ncnn3cc(OCCN4CCCC4)c(C)c23)c(=O)n2c1C(=O)NC21CCN(C)CC1` [Compound 3 (hydrochloride)] showed an IC50 in data set [1] of 39 nM.

Turning to `Cc1c(OCCN2CCCC2)cn2ncnc(Nc3ccc4n(c3=O)C3(CCCCC3)NC4=O)c12` [Compound 4 (hydrochloride)], the IC50 in data set [1] amounted to 25 nM; in data set [2] it was 14 nM.

On to `Cc1c(OCCN2CCCC2)cn2ncnc(Nc3cc(F)c4n(c3=O)C3(CCCCC3)NC4=O)c12` [Compound 5 (hydrochloride)], for which the IC50 in data set [1] was found to be 26 nM; in data set [2] it was 9.5 nM.

Consider `Cc1c(OCCN2CCCC2)cn2ncnc(Nc3cc(Cl)c4n(c3=O)C3(CCCCC3)NC4=O)c12` [Compound 6 (hydrochloride)], for which the IC50 in data set [1] stood at 21 nM; in data set [2], 0.66 nM.

Take `Cc1cc(Nc2ncnn3cc(OCCN4CCCC4)c(C)c23)c(=O)n2c1C(=O)NC21CCCC1` [Compound 7 (hydrochloride)]: in data set [3], the AUC(0-t) was 1.39 µM·h, the half-life was 192 min and the Cmax is 131 nM. In data set [1], this compound displayed an IC50 of 17 nM. This compound also yielded an IC50 in data set [2] of 6.5 nM.

Regarding `Cc1cc(Nc2ncnn3cc(OCCN4CCCC4)c(C)c23)c(=O)n2c1C(=O)NC2(C)C` [Compound 8 (hydrochloride)], the values for the IC50 in data set [1] and in data set [2] were 33 nM and 24 nM, respectively.

On to `Cc1cc(Nc2ncnn3cc(OCCN4CCCC4)c(C)c23)c(=O)n2c1C(=O)NC21CCC(F)(F)CC1` [Compound 9 (hydrochloride)], for which the results for the IC50 in data set [1] and in data set [2] were 30 nM and 12 nM, respectively.

Consider `Cc1c(OCCN2CCCC2)cn2ncnc(Nc3cc(Cl)c4n(c3=O)C3(CCCC3)NC4=O)c12` [Compound 10 (hydrochloride)], for which the concentration for half-maximal inhibition (IC50) in data set [1] came to 8 nM; in data set [2], 3.1 nM.

As to `Cc1cc(Nc2ncnn3cc(OCCN4CCC(F)(F)C4)c(C)c23)c(=O)n2c1C(=O)NC21CCCCC1` [Compound 11], in data set [3] (PO 2 mg/kg vs IV 0.5 mg/kg, read-out: Bioavailability F), the bioavailability was determined as 14.2%. Moreover, in data set [3], the AUC(0-t) was determined as 0.405 µM·h, the half-life was 726 min and the Cmax amounted to 104 nM. The clearance in data set [3] (intravenous injection 0.5 mg/kg, read-out: Clearance CL) amounted to 21.8 mL/min/kg. Also, in data set [3] (intravenous injection 0.5 mg/kg, read-out: Tissue distribution Vdss), the Vd came out at 2.53 L/kg. In data set [1], this compound came in with an IC50 of 28 nM. This compound returned a half-maximal inhibitory concentration (IC50) in data set [2] of 18.9 nM.

Regarding `Cc1cc(Nc2ncnn3cc(OCCN4CCC(F)(F)C4)c(C)c23)c(=O)n2c1C(=O)NC21CCCC1` [Compound 12], the T/C % stood at 36.43% in data set [4] (30 mg/Kg), 31.11% in data set [4] (90 mg/Kg) and 33.31% in data set [4] (200 mg/Kg). In addition, the TGI % in data set [4] (30 mg/Kg) is listed as 63.57%; in data set [4] (90 mg/Kg) it was 68.89%; in data set [4] (200 mg/Kg), 68.51%. In addition, the IC50 in data set [2] turned out to be 8.6 nM.

As to `Cc1cc(Nc2ncnn3cc(OC[C@H](C)N4CCCC4)c(C)c23)c(=O)n2c1C(=O)NC21CCCC1` [Compound 13], the results for the IC50 in data set [1] and in data set [2] were 14 nM and 10.5 nM, respectively.

Take `Cc1cc(Nc2ncnn3cc(OCC4CCNC4)c(C)c23)c(=O)n2c1C(=O)NC21CCCCC1` (centres unmarked) [Compound 15 (hydrochloride)]: the IC50 in data set [1] was 28 nM.

Take `Cc1cc(Nc2ncnn3cc(OCC4CCN(C)C4)c(C)c23)c(=O)n2c1C(=O)NC21CCCCC1` (centres unmarked) [Compound 16 (hydrochloride)]: the 50% inhibitory concentration (IC50) in data set [1] was found to be 27 nM; in data set [2], 2.8 nM.

`Cc1cc(Nc2cc(N)ncn2)c(=O)n2c1C(=O)NC21CCCCC1` [eFT508]: the “safety in phase I clinical trial” value in data set [5] is given as “good safety”. The “effect on expression of PD-1, LAG3 and IL-10” value in data set [6] is “selectively inhibit the expression of PD-1, LAG3 and IL-10”.

For orientation: IC50 means the concentration that gives 50% inhibition. High values mean a need for much substance, low ones inhibition by little substance. As usually defined, the bioavailability is dose-corrected exposure relative to a reference, in per cent. In general, clearance refers to the volume of plasma or blood freed of the substance per unit of time.
